Experimental data as given in ChEMBL document CHEMBL4680277, “Targeting Metabolism of Extracellular Nucleotides via Inhibition of Ectonucleotidases CD73 and CD39” (J Med Chem, 2020).

Tests used:
5'-nucleotidase [1] = target: T1, 5'-nucleotidase (Homo sapiens, UniProt P21589); assay: Inhibition of human C-terminal 6His-tagged CD73 (1 to 547 residues) expressed in HEK293F cells using 2 uM AMP as substrate by rapidfire mass spectrometry assay
Rattus norvegicus = species: Rattus norvegicus; assay: Inhibition of ecto-ATPase in Wistar rat cardiac synaptosomes assessed as reduction in ATP hydrolysis at 100 uM preincubated for 10 min followed by ATP addition and measured after 6 mins relative to control; type: subcellular; conditions: Heart, time 16.0 min
[2] = Half-life in human at 25 mg, iv infusion dosed once every 2 weeks; type: ADME, organism-based; conditions: in vivo
5'-nucleotidase [3] = target: T2, 5'-nucleotidase (Rattus norvegicus, UniProt P21588); assay: Inhibition of rat CD73 expressed in baculovirus infected insect cells using AMP substrate by capillary electrophoresis assay
T2 sequence (P21588 whole entry): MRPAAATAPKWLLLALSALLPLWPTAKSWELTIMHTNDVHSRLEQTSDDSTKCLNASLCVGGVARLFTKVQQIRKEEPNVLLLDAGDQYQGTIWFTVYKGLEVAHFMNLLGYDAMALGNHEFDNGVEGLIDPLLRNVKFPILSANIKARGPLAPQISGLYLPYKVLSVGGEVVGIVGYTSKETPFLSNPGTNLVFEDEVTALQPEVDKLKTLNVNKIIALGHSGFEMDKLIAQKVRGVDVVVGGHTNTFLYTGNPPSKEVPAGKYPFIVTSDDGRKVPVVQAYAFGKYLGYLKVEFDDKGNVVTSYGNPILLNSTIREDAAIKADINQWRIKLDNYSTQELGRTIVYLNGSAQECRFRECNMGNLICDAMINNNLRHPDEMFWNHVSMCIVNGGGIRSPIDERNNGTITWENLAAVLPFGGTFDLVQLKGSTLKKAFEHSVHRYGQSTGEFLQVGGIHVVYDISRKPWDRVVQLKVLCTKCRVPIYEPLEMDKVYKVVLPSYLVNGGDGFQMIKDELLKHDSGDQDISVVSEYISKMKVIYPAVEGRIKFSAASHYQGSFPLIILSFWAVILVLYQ

5'-nucleotidase [4] = target: T1, 5'-nucleotidase; assay: Inhibition of human C-terminal His6-tagged CD73 expressed in HEK293F cells using [15N]5-AMP as substrate preincubated for 1 hr followed by substrate addition and measured after 8 mins by MS/MS assay
5'-nucleotidase [5] = target: T1, 5'-nucleotidase; assay: Inhibition of CD73 in human melanoma 1539 cells using AMP substrate by capillary electrophoresis assay; type: cell-based, NW1539
5'-nucleotidase [6] = target: T1, 5'-nucleotidase; assay: Inhibition of recombinant human CD73 using AMP as substrate incubated for 120 mins by CellTiter-Glo assay
5'-nucleotidase [7] = target: T1, 5'-nucleotidase; assay: Inhibition of recombinant human CD73 using AMP as substrate incubated for 90 mins by malachite green colorimetric assay
5'-nucleotidase [8] = target: T1, 5'-nucleotidase; assay: Inhibition of human CD73 expressed in CHO cells using AMP as substrate preincubated for 10 mins followed by substrate addition and measured every minute for 10 to 20 mins by PNP coupled enzyme assay; type: cell-based
[9] = target: T3, Ectonucleoside triphosphate diphosphohydrolase 2 (Rattus norvegicus, UniProt O35795); assay: Inhibition of rat NTPDase2 expressed in CHO cells using ATP as substrate incubated for 10 mins by UV absorbance method; type: cell-based
T3 sequence (O35795 whole entry): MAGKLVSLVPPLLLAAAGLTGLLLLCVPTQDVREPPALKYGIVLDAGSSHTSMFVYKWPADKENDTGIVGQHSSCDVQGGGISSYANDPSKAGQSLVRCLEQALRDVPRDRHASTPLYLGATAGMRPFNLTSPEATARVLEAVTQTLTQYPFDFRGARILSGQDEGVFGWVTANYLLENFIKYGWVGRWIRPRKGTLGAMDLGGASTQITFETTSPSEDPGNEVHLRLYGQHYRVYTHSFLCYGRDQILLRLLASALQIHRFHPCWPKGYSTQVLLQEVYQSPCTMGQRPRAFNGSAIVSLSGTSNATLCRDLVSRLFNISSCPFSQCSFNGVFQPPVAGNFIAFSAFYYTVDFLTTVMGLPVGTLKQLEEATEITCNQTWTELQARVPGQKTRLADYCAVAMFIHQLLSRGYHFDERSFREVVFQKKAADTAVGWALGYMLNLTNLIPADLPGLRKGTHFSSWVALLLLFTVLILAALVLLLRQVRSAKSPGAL

[10] = target: T4, Ectonucleoside triphosphate diphosphohydrolase 1 (Rattus norvegicus, UniProt P97687); assay: Inhibition of rat CD39 expressed in CHO cells using ATP as substrate incubated for 10 mins by UV absorbance method; type: cell-based
T4 sequence (P97687 whole entry): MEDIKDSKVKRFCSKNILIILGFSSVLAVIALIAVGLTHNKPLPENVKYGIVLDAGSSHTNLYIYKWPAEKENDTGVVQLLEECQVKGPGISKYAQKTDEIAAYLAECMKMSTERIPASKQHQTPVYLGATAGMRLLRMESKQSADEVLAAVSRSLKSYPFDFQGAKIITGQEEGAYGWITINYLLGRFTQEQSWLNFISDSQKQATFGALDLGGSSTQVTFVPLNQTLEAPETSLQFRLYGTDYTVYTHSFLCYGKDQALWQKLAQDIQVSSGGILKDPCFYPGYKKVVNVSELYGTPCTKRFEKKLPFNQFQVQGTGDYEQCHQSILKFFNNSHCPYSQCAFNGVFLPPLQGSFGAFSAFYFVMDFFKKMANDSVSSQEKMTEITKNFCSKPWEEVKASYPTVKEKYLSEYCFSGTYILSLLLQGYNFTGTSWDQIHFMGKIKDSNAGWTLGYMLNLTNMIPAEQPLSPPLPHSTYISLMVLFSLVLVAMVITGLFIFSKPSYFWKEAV

[11] = Inhibition of rat NTPDase3 expressed in CHO cells using ATP as substrate incubated for 10 mins by UV absorbance method; type: cell-based
[12] = target: T5, Ectonucleoside triphosphate diphosphohydrolase 1 (Homo sapiens, UniProt P49961); assay: Inhibition of human CD39 using ATP as substrate preincubated for 3 mins followed by substrate addition and measured after 10 to 15 mins by Malachite green reagent based assay
T5 sequence (P49961 whole entry): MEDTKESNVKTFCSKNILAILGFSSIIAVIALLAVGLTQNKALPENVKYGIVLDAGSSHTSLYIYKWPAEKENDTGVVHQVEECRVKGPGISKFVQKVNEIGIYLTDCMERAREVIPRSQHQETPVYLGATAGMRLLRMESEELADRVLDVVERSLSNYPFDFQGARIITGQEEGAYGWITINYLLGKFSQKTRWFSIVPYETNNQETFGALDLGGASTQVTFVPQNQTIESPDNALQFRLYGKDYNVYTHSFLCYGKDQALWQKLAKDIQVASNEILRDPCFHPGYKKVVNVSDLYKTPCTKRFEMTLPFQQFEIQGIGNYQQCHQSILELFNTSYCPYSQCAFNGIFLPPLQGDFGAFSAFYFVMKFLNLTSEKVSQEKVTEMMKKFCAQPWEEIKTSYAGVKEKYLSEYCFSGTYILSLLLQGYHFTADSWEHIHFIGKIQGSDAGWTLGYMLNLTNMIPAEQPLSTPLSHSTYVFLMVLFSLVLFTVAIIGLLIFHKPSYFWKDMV

[13] = target: T5, Ectonucleoside triphosphate diphosphohydrolase 1; assay: Inhibition of human CD39 using ATP as substrate preincubated for 3 mins followed by substrate addition and measured after 10 to 15 mins by Dixon and Cornish-Bowden plot analysis; conditions: read-out: Ki(app)
5'-nucleotidase [14] = target: T1, 5'-nucleotidase; assay: Inhibition of human C-terminal 6His-tagged CD73 ( Trp27 to Lys547 residues) expressed in CHO cells using CMP as substrate incubated for 20 mins by malachite Green assay
[15] = Inhibition of human FLAG-tagged CD73 Thr376Ala mutant (1 to 552 residues) assessed as reduction in adenosine formation using AMP as substrate preincubated for 10 mins followed by substrate addition and measured after 30 mins by rapidfire mass spectrometry assay
5'-nucleotidase [16] = target: T1, 5'-nucleotidase; assay: Inhibition of CD73 in human serum using 13C5-15N5-AMP as substrate preincubated for 60 mins followed by substrate addition and measured after 15 mins by LC/MS based assay; type: cell-free
[17] = target: T5, Ectonucleoside triphosphate diphosphohydrolase 1; assay: Inhibition of human CD39 using ATP as substrate preincubated for 3 mins followed by substrate addition and measured after 10 to 15 mins by Cheng-Prusoff analysis; conditions: read-out: Ki(app)

T1 sequence (P21589 whole entry, the tested form may be a part): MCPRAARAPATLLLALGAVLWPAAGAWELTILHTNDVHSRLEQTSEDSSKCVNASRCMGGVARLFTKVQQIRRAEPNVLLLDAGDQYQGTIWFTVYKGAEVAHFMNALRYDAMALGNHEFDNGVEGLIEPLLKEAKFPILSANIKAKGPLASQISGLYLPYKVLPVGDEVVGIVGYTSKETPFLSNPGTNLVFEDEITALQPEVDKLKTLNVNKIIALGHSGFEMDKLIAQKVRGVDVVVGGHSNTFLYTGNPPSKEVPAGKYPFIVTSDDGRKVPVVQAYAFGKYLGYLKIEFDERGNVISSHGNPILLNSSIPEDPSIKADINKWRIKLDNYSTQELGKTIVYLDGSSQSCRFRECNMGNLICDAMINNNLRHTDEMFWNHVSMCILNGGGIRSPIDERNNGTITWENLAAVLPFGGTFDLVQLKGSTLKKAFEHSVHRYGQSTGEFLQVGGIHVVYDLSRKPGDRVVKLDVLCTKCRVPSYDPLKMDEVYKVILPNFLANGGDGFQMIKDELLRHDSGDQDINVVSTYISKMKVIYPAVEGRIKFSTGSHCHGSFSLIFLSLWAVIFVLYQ

IC50 (5'-nucleotidase [1]) [nM] | Compound | further results
< 62 | O=c1[nH]cc(-c2cc(C3CC(F)(F)C3)c(Cl)nn2)c(=O)[nH]1 | 
< 62 | CC(F)(F)[C@H]1C[C@@H]1c1cc(-c2c[nH]c(=O)[nH]c2=O)nnc1Cl | 
< 62 | O=c1[nH]cc(-c2cc([C@H]3CC3(F)F)c(Cl)nn2)c(=O)[nH]1 | 
< 62 | O=c1[nH]cc(-c2cc(C3CCC3)c(Cl)nn2)c(=O)[nH]1 | 
< 62 | O=c1[nH]cc(-c2cc(C3CC3)c(Cl)nn2)c(=O)[nH]1 | 
< 62 | O=c1[nH]cc(-c2cc(C3CCCC3)c(Cl)nn2)c(=O)[nH]1 | 
< 62 | CC1(C)CC(c2cc(-c3c[nH]c(=O)[nH]c3=O)nnc2Cl)C1 | 
< 62 | O=c1[nH]cc(-c2cc([C@H]3C[C@@H]3C(F)F)c(Cl)nn2)c(=O)[nH]1 | 
< 62 | CC(C)[C@H]1C[C@@H]1c1cc(-c2c[nH]c(=O)[nH]c2=O)nnc1Cl | 

More lines, now with the values behind:

Compound | IC50 (5'-nucleotidase [1]) [nM] | further results
COc1nnc(-c2c[nH]c(=O)[nH]c2=O)cc1C1CCCCC1 | < 62 | 
Cc1cc(-c2ccc(/N=N/c3ccc4c(S(=O)(=O)O)cc(S(=O)(=O)O)c(N)c4c3O)c(C)c2)ccc1/N=N/c1ccc2c(S(=O)(=O)O)cc(S(=O)(=O)O)c(N)c2c1O |  | inhibition (Rattus norvegicus): 97.2%
N#Cc1nnc(-c2c[nH]c(=O)[nH]c2=O)cc1C1CC1 | < 62 | 
C[C@H](Nc1cc(Cl)nc2c1cnn2[C@@H]1O[C@H](COP(=O)(O)CP(=O)(O)O)[C@@H](O)[C@H]1O)c1ccccc1F |  | half-life [2]: 74 h
Nc1ncnc2c1ncn2[C@@H]1O[C@H](COP(=O)(O)CP(=O)(O)O)[C@@H](O)[C@H]1O [PHOSPHOMETHYLPHOSPHONIC ACID ADENOSYL ESTER] |  | Ki (5'-nucleotidase [3]): 870 nM; IC50 (5'-nucleotidase [4]): 60 nM; Ki (5'-nucleotidase [5]): 510 nM; IC50 (5'-nucleotidase [6]): 2500 nM; IC50 (5'-nucleotidase [7]): 1100 nM; IC50 (5'-nucleotidase [8]): 50 nM
Nc1c(S(=O)(=O)O)cc(Nc2ccc(Nc3nc(Cl)nc(Nc4ccc(S(=O)(=O)O)c(S(=O)(=O)O)c4)n3)c(S(=O)(=O)O)c2)c2c1C(=O)c1ccccc1C2=O |  | Ki [9]: 24200 nM; Ki [10]: 20000 nM; Ki [11]: 1100 nM
O=c1[nH]cc(-c2cc([C@H]3C[C@@H]3C(F)F)cnn2)c(=O)[nH]1 | < 62 | 
CCCCSc1nc2c(N)ncnc2n1[C@@H]1O[C@H](COP(=O)(O)OP(=O)(O)O)[C@@H](O)[C@H]1O |  | IC50 [12]: 28000 nM; Ki [13]: 900 nM
CCOC(=O)C(OC[C@H]1C[C@@H](n2nnc3c(NC[C@@H]4CCOC4)nc(Cl)nc32)[C@H](O)[C@@H]1O)P(=O)(O)O (stereo partly drawn) |  | IC50 (5'-nucleotidase [14]): < 100 nM
COc1nnc(-c2c[nH]c(=O)[nH]c2=O)cc1C1CCC(F)(F)C1 (stereo not drawn) | < 62 | IC50 (5'-nucleotidase [1]; hek293f): < 62 nM
COc1nnc(-c2c[nH]c(=O)[nH]c2=O)cc1C1CCC1 | < 62 | 
CCCCSc1nc2c(N)ncnc2n1[C@@H]1O[C@H](COP(=O)(O)O)[C@@H](O)[C@H]1O |  | IC50 [12]: 35000 nM
C[C@@H](Nc1nc(Cl)nc2c1ncn2[C@@H]1O[C@H](CS(=O)(=O)CP(=O)(O)O)[C@@H](O)[C@H]1O)c1ccccc1 |  | IC50 (5'-nucleotidase [8]): < 10 nM
N#Cc1nnc(-c2c[nH]c(=O)[nH]c2=O)cc1[C@H]1C[C@@H]1C(F)F | < 62 | 
Cc1nnc(-c2c[nH]c(=O)[nH]c2=O)cc1[C@H]1C[C@@H]1C(C)(F)F | < 62 | 
CC[C@H]1C[C@@H]1c1cc(-c2c[nH]c(=O)[nH]c2=O)nnc1C#N | < 62 | 

Compound | IC50 (5'-nucleotidase [1]) [nM] | further results
N#Cc1nnc(-c2c[nH]c(=O)[nH]c2=O)cc1C1CCCC1 | < 62 | 
NC(=O)c1cc2c(c(Cl)c1O)NCCOCCCCCc1cc(cc3[nH]ccc13)NS2(=O)=O |  | IC50 [15]: 4 nM
N#Cc1nnc(-c2c[nH]c(=O)[nH]c2=O)cc1[C@@H]1CC1(F)F | < 62 | 
COc1nnc(-c2c[nH]c(=O)[nH]c2=O)cc1C1CC1 | < 62 | 
Cc1nnc(-c2c[nH]c(=O)[nH]c2=O)cc1[C@H]1C[C@@H]1CC(C)C | < 62 | 
O=S1(=O)NC(Nc2cccc3[nH]ncc23)=Nc2c1cc(Cl)c(F)c2O |  | IC50 [15]: 15 nM
CC(C)[C@H]1C[C@@H]1c1cc(-c2c[nH]c(=O)[nH]c2=O)nnc1C#N | < 62 | 
Cc1nnc(-c2c[nH]c(=O)[nH]c2=O)cc1[C@H]1C[C@@H]1CCF | < 62 | 
Cc1nnc(-c2c[nH]c(=O)[nH]c2=O)cc1[C@H]1C[C@@H]1C(F)F | < 62 | EC50 (5'-nucleotidase [16]): 51 nM
COc1nnc(-c2c[nH]c(=O)[nH]c2=O)cc1C1CC(F)(F)C1 | < 62 | 
Nc1c(S(=O)(=O)O)cc(Nc2ccc(Cl)cc2)c2c1C(=O)c1ccccc1C2=O |  | Ki ([9]; cho): 18000 nM; Ki ([10]; cho): 15700 nM; Ki [11]: 16400 nM
COc1nnc(-c2c[nH]c(=O)[nH]c2=O)cc1C1CC(C)(C)C1 | < 62 | 
CCCCSc1nc2c(N)ncnc2n1[C@@H]1O[C@H](COP(=O)(O)OP(=O)(O)OP(=O)(O)O)[C@@H](O)[C@H]1O |  | IC50 [12]: 5600 nM; Ki [17]: 800 nM
N#Cc1nnc(-c2c[nH]c(=O)[nH]c2=O)cc1C1CCC1 | < 62 | 
CC[C@H]1C[C@@H]1c1cc(-c2c[nH]c(=O)[nH]c2=O)nnc1C | < 62 | 
